Results published in US5776944A, “7-(4-aminomethyl-3-methyloxyiminopyrroplidin-1-yl)-1-cyclopropyl-6-flu oro-4-oxo-1,4-dihydro-1,8-naphthyridine-3-carboxylic acid and the process for the preparation thereof” (LG Chemical Ltd., priority 1994, dated 1998).
≈ marks a conversion by molar mass, not a printed value. Like-named read-outs stand apart in the source and are kept apart here.

Tests used:
Type in all cases: cell-based
[1] = test system: Staphylococcus aureus 6538p; assay: In vitro antibacterial activity (MIC, agar dilution), Biological Example 1; conditions: 18 h, Table 25, read-out: Minimum Inhibitory Concentration
[2] = test system: Staphylococcus aureus giorgio; assay: as above; conditions: 18 h, Table 25, read-out: Minimum Inhibitory Concentration
Staphylococcus aureus 77 = assay: as above; conditions: 18 h; Staphylococcus aureus 77, Table 25; read-out: Minimum Inhibitory Concentration
[3] = test system: Staphylococcus aureus 241; assay: as above; conditions: 18 h; Staphylococcus aureus 241, Table 25; read-out: Minimum Inhibitory Concentration
[4] = test system: Staphylococcus epidermidis 887E; assay: as above; conditions: 18 h, Table 25, read-out: Minimum Inhibitory Concentration
[5] = test system: Staphylococcus epidermidis 178; assay: as above; conditions: 18 h; Staphylococcus epidermidis 178, Table 25; read-out: Minimum Inhibitory Concentration
[6] = test system: Streptococcus faecalis 29212; assay: as above; conditions: Enterococcus faecalis, 18 h; Streptococcus faecalis 29212, Table 25; read-out: Minimum Inhibitory Concentration
Bacillus subtilis 6633 = assay: as above; conditions: 18 h; Bacillus subtilis 6633, Table 25; read-out: Minimum Inhibitory Concentration
Micrococcus luteus 9341 = assay: as above; conditions: 18 h; Micrococcus luteus 9341, Table 25; read-out: Minimum Inhibitory Concentration
Escherichia coli 10536 = assay: as above; conditions: read-out: Minimum Inhibitory Concentration
Escherichia coli 3190Y = assay: as above; conditions: 18 h, Table 25, read-out: Minimum Inhibitory Concentration
Escherichia coli 851E = assay: as above; conditions: 18 h, Table 25, read-out: Minimum Inhibitory Concentration
[7] = test system: Escherichia coli TEM3 3455E; assay: microbe, parasite or virus in culture; conditions: TEM33455E, 18 h, read-out: Minimum Inhibitory Concentration
[8] = test system: Escherichia coli TEM5 3739E; assay: microbe, parasite or virus in culture; conditions: TEM53739E, 18 h, read-out: Minimum Inhibitory Concentration
[9] = test system: Escherichia coli TEM9 2639E; assay: microbe, parasite or virus in culture; conditions: TEM92639E, 18 h, read-out: Minimum Inhibitory Concentration
[10] = test system: Pseudomonas aeruginosa 1912E; assay: In vitro antibacterial activity (MIC, agar dilution), Biological Example 1; conditions: 18 h, read-out: Minimum Inhibitory Concentration
[11] = test system: Pseudomonas aeruginosa 10145; assay: as above; conditions: 18 h; Pseudomonas aeruginosa 10145, Table 25; read-out: Minimum Inhibitory Concentration
[12] = test system: Acinetobacter calcoaceticus 15473; assay: as above; conditions: read-out: Minimum Inhibitory Concentration
[13] = test system: Citrobacter diversus 2046E; assay: as above; conditions: Citrobacter koseri, 18 h, Table 25, read-out: Minimum Inhibitory Concentration
[14] = test system: Enterobacter cloacae 1194E; assay: microbe, parasite or virus in culture; conditions: 18 h, read-out: Minimum Inhibitory Concentration
Enterobacter cloacae P99 = assay: microbe, parasite or virus in culture; conditions: P99, 18 h, read-out: Minimum Inhibitory Concentration
[15] = test system: Klebsiella aerogenes 1976E; assay: In vitro antibacterial activity (MIC, agar dilution), Biological Example 1; conditions: 18 h, Table 25, read-out: Minimum Inhibitory Concentration
[16] = test system: Klebsiella aerogenes 1082E; assay: as above; conditions: 18 h, Table 25, read-out: Minimum Inhibitory Concentration
[17] = test system: Salmonella typimurium 14028; assay: as above; conditions: 18 h; Salmonella typimurium 14028, Table 25; read-out: Minimum Inhibitory Concentration
[18] = 18 h, Escherichia coli 10536, Table 25
[19] = 18 h, Acinetobacter calcoaceticus 15473, Table 25
[20] = Acinetobacter calcoaceticus, 15473, 18 h

| SMILES | MIC [1] | MIC [2] | MIC (Staphylococcus aureus 77) | MIC [3] | MIC [4] | MIC [5] | MIC [6] | MIC (Bacillus subtilis 6633) | MIC (Micrococcus luteus 9341) | MIC (Escherichia coli 3190Y) | MIC (Escherichia coli 851E) | MIC [7] | MIC [8] | MIC [9] | MIC [11] | MIC [13] | MIC [14] | MIC (Enterobacter cloacae P99) | MIC [15] | MIC [16] | further results |
| --- | --- | --- | --- | --- | --- | --- | --- | --- | --- | --- | --- | --- | --- | --- | --- | --- | --- | --- | --- | --- | --- |
| NCC1CN(c2cc3c(cc2F)c(=O)c(C(=O)O)cn3C2CC2)CC1=NOCc1ccccc1 (stereo not drawn) [Example 12, 7-(4-animomethyl-3-benzyloxyimino-pyrrolidin-1-yl)-1-cyclcopropyl-6-fluoro-1,4-dihydro-4-oxoquinoline-3-carboxylic acid] | ≤ 0.008 µg/mL | ≤ 0.008 µg/mL | ≤ 0.008 µg/mL | 1 µg/mL (≈ 2.15 µM) | ≤ 0.008 µg/mL | 0.5 µg/mL (≈ 1.08 µM) | 0.031 µg/mL (≈ 0.0667 µM) | ≤ 0.008 µg/mL | 0.13 µg/mL (≈ 0.28 µM) | 0.016 µg/mL (≈ 0.0344 µM) | 0.063 µg/mL (≈ 0.136 µM) | 0.5 µg/mL (≈ 1.08 µM) | 0.25 µg/mL (≈ 0.538 µM) | 0.25 µg/mL (≈ 0.538 µM) | 0.5 µg/mL (≈ 1.08 µM) | 0.13 µg/mL (≈ 0.28 µM) | 0.13 µg/mL (≈ 0.28 µM) | 0.063 µg/mL (≈ 0.136 µM) | 1 µg/mL (≈ 2.15 µM) | 0.13 µg/mL (≈ 0.28 µM) | MIC (Escherichia coli 10536; [18]): ≤ 0.008 µg/mL; MIC ([10]; Pseudomonas aeruginosa 1912E, Table 25): 2 µg/mL (≈ 4.31 µM); MIC [12, 19]: 0.016 µg/mL (≈ 0.0344 µM); MIC [17]: 0.25 µg/mL (≈ 0.538 µM) |
| CON=C1CN(c2nc3c(cc2F)c(=O)c(C(=O)O)cn3C2CC2)CC1CN (stereo not drawn) [Example 180, 7-(4-aminomethyl-3-methoxyiminonyrrolidin-1-yl)-1-cyclopropyl-6-fluoro-4-oxo-1,4-dihydro[1,8]naphthyridine-3-carboxylic acid] | ≤ 0.008 µg/mL | ≤ 0.008 µg/mL | ≤ 0.008 µg/mL | 2 µg/mL (≈ 5.14 µM) | ≤ 0.008 µg/mL | 2 µg/mL (≈ 5.14 µM) | 0.063 µg/mL (≈ 0.162 µM) | ≤ 0.008 µg/mL | 0.13 µg/mL (≈ 0.334 µM) | ≤ 0.008 µg/mL | ≤ 0.008 µg/mL | 0.25 µg/mL (≈ 0.642 µM) | 0.13 µg/mL (≈ 0.334 µM) | 0.031 µg/mL (≈ 0.0796 µM) | 0.25 µg/mL (≈ 0.642 µM) | 0.016 µg/mL (≈ 0.0411 µM) | 0.031 µg/mL (≈ 0.0796 µM) | ≤ 0.008 µg/mL | 0.13 µg/mL (≈ 0.334 µM) | 0.016 µg/mL (≈ 0.0411 µM) | MIC (Escherichia coli 10536; Escherichia coli, 10536, 18 h): ≤ 0.008 µg/mL; MIC ([10]; Pseudomonas aeruginosa, 1912E): 0.25 µg/mL (≈ 0.642 µM); MIC [12, 20]: 0.0634 µg/mL (≈ 0.163 µM); MIC [17]: 0.031 µg/mL (≈ 0.0796 µM) |
| CON=C1CN(c2c(F)cc3c(=O)c(C(=O)O)cn(C4CC4)c3c2Cl)CC1CN (stereo not drawn) [Example 178, 7-(4-aminomethyl-3-methoxyiminopyrrolidin-1-yl)-8-chloro-1-cycloprooyl-6-fluoro-4-oxo-1,4-dihydroquinoline-3-carboxylic acid] | 0.031 µg/mL (≈ 0.0733 µM) | 0.016 µg/mL (≈ 0.0378 µM) | 0.031 µg/mL (≈ 0.0733 µM) | 1 µg/mL (≈ 2.36 µM) | 0.031 µg/mL (≈ 0.0733 µM) | 1 µg/mL (≈ 2.36 µM) | 0.063 µg/mL (≈ 0.149 µM) | 0.016 µg/mL (≈ 0.0378 µM) | 0.25 µg/mL (≈ 0.591 µM) | 0.016 µg/mL (≈ 0.0378 µM) | 0.063 µg/mL (≈ 0.149 µM) | 1 µg/mL (≈ 2.36 µM) | 0.5 µg/mL (≈ 1.18 µM) | 0.25 µg/mL (≈ 0.591 µM) | 1 µg/mL (≈ 2.36 µM) | 0.13 µg/mL (≈ 0.307 µM) | 0.13 µg/mL (≈ 0.307 µM) | 0.063 µg/mL (≈ 0.149 µM) | 0.5 µg/mL (≈ 1.18 µM) | 0.25 µg/mL (≈ 0.591 µM) | MIC (Escherichia coli 10536; Escherichia coli, 10536, 18 h): 0.031 µg/mL (≈ 0.0733 µM); MIC ([10]; Pseudomonas aeruginosa, 1912E): 0.5 µg/mL (≈ 1.18 µM); MIC [12, 20]: 0.13 µg/mL (≈ 0.307 µM); MIC [17]: 0.063 µg/mL (≈ 0.149 µM) |
| CON=C1CN(c2cc3c(cc2F)c(=O)c(C(=O)O)cn3C2CC2)CC1CN (stereo not drawn) [Example 179, 7-(4-aminomethyl-3-methoxyiminopyrrolidin-1-yl)-1-cyclopronyl-6-fluoro-4-oxo-1,4-dihydroquinoline-3-carboxylic acid] | ≤ 0.008 µg/mL | 0.016 µg/mL (≈ 0.0412 µM) | 0.031 µg/mL (≈ 0.0798 µM) | 2 µg/mL (≈ 5.15 µM) | 0.016 µg/mL (≈ 0.0412 µM) | 2 µg/mL (≈ 5.15 µM) | 0.031 µg/mL (≈ 0.0798 µM) | ≤ 0.008 µg/mL | 0.13 µg/mL (≈ 0.335 µM) | ≤ 0.008 µg/mL | ≤ 0.008 µg/mL | 0.13 µg/mL (≈ 0.335 µM) | 0.063 µg/mL (≈ 0.162 µM) | 0.031 µg/mL (≈ 0.0798 µM) | 0.25 µg/mL (≈ 0.644 µM) | 0.031 µg/mL (≈ 0.0798 µM) | 0.031 µg/mL (≈ 0.0798 µM) | 0.008 µg/mL (≈ 0.0206 µM) | 0.13 µg/mL (≈ 0.335 µM) | 0.031 µg/mL (≈ 0.0798 µM) | MIC (Escherichia coli 10536; Escherichia coli, 10536, 18 h): < 0.008 µg/mL; MIC ([10]; Pseudomonas aeruginosa, 1912E): 0.25 µg/mL (≈ 0.644 µM); MIC [12, 20]: 0.016 µg/mL (≈ 0.0412 µM); MIC [17]: 0.063 µg/mL (≈ 0.162 µM) |
| CC1COc2c(N3CCN(C)CC3)c(F)cc3c(=O)c(C(=O)O)cn1c23 (stereo not drawn) [OFLX, ofloxacin, reference compound] | 0.25 µg/mL (≈ 0.692 µM) | 0.25 µg/mL (≈ 0.692 µM) | 0.25 µg/mL (≈ 0.692 µM) | 64 µg/mL (≈ 177 µM) | 0.25 µg/mL (≈ 0.692 µM) | 32 µg/mL (≈ 88.6 µM) | 2 µg/mL (≈ 5.53 µM) | 0.063 µg/mL (≈ 0.174 µM) | 2 µg/mL (≈ 5.53 µM) | 0.016 µg/mL (≈ 0.0443 µM) | 0.063 µg/mL (≈ 0.174 µM) | 0.5 µg/mL (≈ 1.38 µM) | 0.5 µg/mL (≈ 1.38 µM) | 0.063 µg/mL (≈ 0.174 µM) | 2 µg/mL (≈ 5.53 µM) | 0.063 µg/mL (≈ 0.174 µM) | 0.063 µg/mL (≈ 0.174 µM) | ≤ 0.008 µg/mL | 0.25 µg/mL (≈ 0.692 µM) | 0.063 µg/mL (≈ 0.174 µM) | MIC (Escherichia coli 10536; [18]): 0.031 µg/mL (≈ 0.0858 µM); MIC ([10]; Pseudomonas aeruginosa, 1912E): 0.5 µg/mL (≈ 1.38 µM); MIC [12, 19]: 0.25 µg/mL (≈ 0.692 µM); MIC [17]: 0.13 µg/mL (≈ 0.36 µM) |
